According to US20090312265A1, “NOVEL ANTIMICROBIAL PEPTIDES AND USE THEREOF” (priority 2006, published 2009):
No end group written: not given here.

How the values were obtained:
[1] = CD-spectroscopy, helix content; format: physicochemical; details: 10 mM Tris, 10 μM peptide, 37° C.; for Helix content, PA: pH 7.4, PA liposome dispersion (100 μM lipid); for Helix content, PC: pH 7.4, PC liposome dispersion (100 μM lipid); for Helix content, Buffer: pH 7.4, buffer
Description: The CD spectra of the peptides in solution were measured on a Jasco J-810 Spectropolarimeter (Jasco, U.K.). The measurements were performed at 37° C. in a 10 mm quartz cuvet under stirring and the peptide concentration was 10 μM. The effect of on peptide secondary structure of liposomes at a lipid concentration of 100 μM was monitired in the range 200-250 nm. The only peptide conformations observed under the conditions investigated were α-helix and random coil. The fraction of the peptide in α-helical conformation, Xα, is calculated from
where A is the recorded CD signal at 225 nm, and Aα and Ac are the CD signal at 225 nm for a reference peptide in 100% α-helix and 100% random coil conformation, respectively. 100% α-helix and 100% random coil references were obtained from 0.133 mM (monomer concentration) poly-L-lysine in 0.1 M NaOH and 0.1 M HCl, respectively. To account for the instrumental differences between measurements the background value (detected at 250 nm, where no peptide signal is present) was subtracted. Signals from the bulk solution were also corrected for (see Table 5).

[2] = Liposome leakage assay (carboxyfluorescein release), PC liposomes; details: scale: Triton X100 = 100% release; for PC + NaCl (CF release, liposome leakage): 10 mM Tris pH 7.4 with additional 150 mM NaCl; for PC − NaCl (CF release, liposome leakage): 10 mM Tris pH 7.4 without NaCl
Description: (§1) Dry lipid films were prepared by dissolving either dioleoylphosphatidylcholine (Avanti Polar Lipids, Alabaster, Ala.) (60 mol %) and cholesterol (Sigma, St Louis, Mo.) (40 mol %), or dioleoylphosphatidylcholine (30 mol %), dioleoylphosphatidic acid (Avanti Polar Lipids, Alabaster, Ala.) (30 mol %) and cholesterol (40 mol %) in chloroform, and then removing the solvent by evaporation under vacuum overnight. Subsequently, buffer solution containing 10 mM Tris, pH 7.4, either with or without additional 150 mM NaCl, was added together with 0.1 M carboxyfluorescein (CF) (Sigma, St Louis, Mo.). After hydration, the lipid mixture was subjected to eight freeze-thaw cycles consisting of freezing in liquid nitrogen and heating to 60° C. Unilamellar liposomes with a diameter of about 130 nm (as found with cryo-TEM; results not shown) were generated by multiple extrusions through polycarbonate filters (pore size 100 nm) mounted in a LipoFast miniextruder (Avestin, Ottawa, Canada). Untrapped carboxyfluorescein was then removed by filtration through two subsequent Sephadex G-50 columns with the relevant Tris buffer as eluent. Both extrusion and filtration was performed at 22° C. In the liposome leakage assay, the well lmown self-quenching of CF was used. Thus, at 100 mM CF is self-quenched, and the recorded fluorescence intensity from liposomes with entrapped CF is low. […] The CF release was determined by monitoring the emitted fluorescence at 520 nm from a liposome dispersion (10 mM lipid in 10 mM Tris pH 7.4). An absolute leakage scale is obtained by disrupting the liposomes at the end of the experiment through addition of 0.8 mM Triton X100 (Sigma, St Louis, Mo.), thereby causing 100% release and dequenching of CF. A SPEX-fluorolog 1650 0.22-m double spectrometer (SPEX Industries, Edison, N.J.) was used for the liposome leakage assay (see Table 4).

[3] = Liposome leakage assay (carboxyfluorescein release), PA liposomes; details: scale: Triton X100 = 100% release; for PA + NaCl (CF release, liposome leakage): 10 mM Tris pH 7.4 with additional 150 mM NaCl; for PA − NaCl (CF release, liposome leakage): 10 mM Tris pH 7.4 without NaCl
Description: as §1

bacteria = test: Antibacterial activity in vitro; format: cell-based
Description: Radial diffusion assays (RDA) were performed essentially as described earlier (Lehrer, R. I., Rosenman, M., Harwig, S. S., Jackson, R. & Eisenhauer, P. (1991) Ultrasensitive assays for endogenous antimicrobial polypeptides, J Immunol Methods. 137, 167-73.).
Briefly, bacteria (E. coli, P. aeruginosa, S. aureus, B. subtilis) or fungi (C. albicans) were grown to mid-logarithmic phase in 10 ml of full-strength (3% w/v) trypticase soy broth (TSB) (Becton-Dickinson, Cockeysville, Md.). The microorganisms were washed once with 10 mM Tris, pH 7.4. 4×10^6 bacterial cfu or 1×10^5 fungal cfu was added to 5 ml of the underlay agarose gel, consisting of 0.03% (w/v) TSB, 1% (w/v) low-electroendoosmosistype (Low-EEO) agarose (Sigma, St Louise Mo.) and a final concentration of 0.02% (v/v) Tween 20 (Sigma). The underlay was poured into a Ø 85 mm petri dish. After agarose solidified, 4 mm-diameter wells were punched and 6 μl of test sample was added to each well. Plates were incubated at 37° C. for 3 hours to allow diffusion of the peptides. The underlay gel was then covered with 5 ml of molten overlay (6% TSB and 1% Low-EEO agarose in dH2O). Antimicrobial activity of a peptide is visualized as a clear zone around each well after 18-24 hours of incubation at 37° C. for bacteria and 28° C. for Candida albicans.

E. coli bacteria = test: Antibacterial effect of HB-EGF in vitro (bacterial survival); format: cell-based; details: HB-EGF at 6 μM, 2×10^6 cfu/ml E. coli, 10 mM Tris, pH 7.4
Description: The antibacterial effect of HB-EGF (Q99075, SEQ ID NO: 19) was evaluated in vitro. 2×10^6 cfu/ml of E. coli bacteria were incubated in 50 μl with HB-EGF at 6 μM in 10 mM Tris, pH 7.4 buffer (Tris). The difference in bacterial survival was significant for the HB-EGF treated material vs. the control (no HB-EGF present), i.e. HB-EGF does in it self posses an antibacterial effect, although less pronounced than the peptides being derived from it.

Erythrocytes = format: cell-based; details: 1 h
Description: EDTA-blood was centrifuged at 800 g for 10 min, whereafter plasma and buffy coat were removed. The erythrocytes were washed three times and resuspended in 5% PBS, pH 7.4. The cells were then incubated with end-over-end rotation for 1 h at 37° C. in the presence of peptides (3-60 μM). 2% Triton X-100 (Sigma-Aldrich) served as positive control. The samples were then centrifuged at 800 g for 10 min. The absorbance of hemoglobin release was measured at λ 540 nm and is in the plot expressed as % of TritonX-100 induced hemolysis (FIG. 5 and table 6). The peptides in table 3A (SEQ ID No. 12-18) were evaluated as described above.

[4] = tested on: Gram-positive and Gram-negative bacterial, fungal, and viral pathogens; details: Niyonsaba and Ogawa 2005; cited from earlier work

Substance	Helix content, PA [1] [%]	Helix content, PC [1] [%]	Helix content, Buffer [1] [%]	PC + NaCl (CF release, liposome leakage) [2]	PC − NaCl (CF release, liposome leakage) [2]	PA + NaCl (CF release, liposome leakage) [3]	PA − NaCl (CF release, liposome leakage) [3]	antibacterial activity in vitro (bacteria)	difference in bacterial survival vs. control (E. coli bacteria)	Erythrocytes Hemolysis (%) Mean (Erythrocytes) [%]	antimicrobial activity spectrum [4]
GKRKKKGKGLGKKRDPCLRKYK (listed as Homo sapiens) [GKR22]	10 ± 3	5 ± 2	8 ± 2	4 ± 1	72 ± 8	2 ± 1	42 ± 7	shows antibacterial activity in vitro	–	–	–
GRPRESGKKRKRKRKLKPT (listed as Homo sapiens) [GRP19]	8 ± 3	8 ± 4	9 ± 2	4 ± 1	30 ± 12	5 ± 1	20 ± 2	show antibacterial activity in vitro	–	–	–
HB-EGF: Human heparin-binding EGF-like growth factor (accession code Q99075)	–	–	–	–	–	–	–	–	significant	–	–
KRKKKGKGLGKKRDPCLRKY [KRK20: A]	–	–	–	–	–	–	–	–	–	2.25	–
KRKKKGKGLGKKRLPCLRKY [KRK20: C]	–	–	–	–	–	–	–	–	–	2.31	–
KRKKKGKGLGKKRWPCLRKY [KRK20: G]	–	–	–	–	–	–	–	–	–	2.29	–
KRKKKGKGWGKKRDPCLRKY [KRK20: D]	–	–	–	–	–	–	–	–	–	2.56	–
KRKKKGKGWGKKRLPCLRKY [KRK20: E]	–	–	–	–	–	–	–	–	–	2.73	–
KRKKKGKGWGKKRWPCLRKY [KRK20: F]	–	–	–	–	–	–	–	–	–	3.14	–
KRKRKGKGLGKKKDPCLRKF [KRK20: B]	–	–	–	–	–	–	–	–	–	2.26	–
LKIKTKKVNTADQCANRCTRNKGL (listed as Homo sapiens) [LKI24]	14 ± 4	9 ± 3	13 ± 3	6 ± 3	54 ± 4	2 ± 2	25 ± 4	–	–	–	–
LKKNGSCKRGPRTHYGQKAIL (human growth factor) [LKK21, FGF1_HUMAN aa 126-146]	10 ± 4	13 ± 5	11 ± 2	6 ± 2	26 ± 3	–	4 ± 2	shows antibacterial activity in vitro	–	–	–
LKRTGQYKLGSKTGPGQKAIL (listed as Homo sapiens) [LKR21, FGF2_HUMAN aa 127-147]	–	–	–	–	2 ± 1	–	3 ± 1	–	–	–	–
LLGDFFRKSKEKIGKEFKRIVQRIKDFLRNLVPRTES [LL-37, reference compound]	100 ± 10	100 ± 10	60 ± 10	73 ± 7	100 ± 10	57 ± 6	100 ± 10	–	–	–	broad-spectrum antimicrobial activity
LNGKGAPRRGQKTRRKNTSAH (listed as Homo sapiens) [LNG21]	–	–	–	–	12 ± 2	–	9 ± 5	–	–	–	–
LNQKGIPVRGKKTKKEQKTAH (listed as Homo sapiens) [LNQ21, FGF7_HUMAN aa 167-187]	–	–	–	–	2 ± 1	–	10 ± 1	–	–	–	–
LRPVQVRKIEIVRRKPIFKKATVT (LRPVQVRKIEIVRKKPIFKKATVT; listed as Homo sapiens) [LRP24]	15 ± 3	10 ± 4	13 ± 3	4 ± 4	33 ± 11	6 ± 3	44 ± 10	show antibacterial activity in vitro	–	–	–
PKRKKKGGKNGKNRRNRKKKN (listed as Homo sapiens) [PKR21]	9 ± 4	9 ± 3	10 ± 2	6 ± 1	38 ± 3	–	13 ± 8	shows antibacterial activity in vitro	–	–	–
QRAKTPQTRVTIRTVRVRRPP (listed as Homo sapiens) [QRA21]	–	–	–	–	10 ± 1	–	0 ± 1	show antibacterial activity in vitro	–	–	–
RVRRPPKGKHRKFHTHDKTA (RVRRPPKGKHRKFKHTHDKTA; listed as Homo sapiens) [RVR21]	6 ± 3	11 ± 4	8 ± 4	6 ± 1	55 ± 2	8 ± 2	18 ± 8	show antibacterial activity in vitro	–	–	–
